Assay results taken from patent US12612387B2, “RAS inhibitors and methods of using the same” (Jazz Pharmaceuticals Ireland Limited, priority 2020, dated 2026).

Assays:
[1] = biological target: T1, K-RAS G12C (Homo sapiens, UniProt P01116, G12C); test: Compound depletion assay, K-RAS G12C; assay type: binding; settings: G12C protein 20 μM, compound 8 μM, 25° C.
T1 construct: His tag; purchased Stratech
Protocol: (§1) Compound Depletion Assay Method
(§2) Lyophilized human K-RAS (12 Cys) protein (His tag) and human K-RAS (12 Asp) protein (His tag) were purchased from Stratech and reconstituted at 30 μM in water. The protein concentration of K-RAS G12C and K-RAS G12D was adjusted to 20 μM in K-RAS Assay Buffer (20 mM HEPES pH 7.5, 150 mM NaCl, 1 mM MgCl2). A 49 μl aliquot of protein solution was transferred to 1.5 ml eppendorfs and incubated at room temperature for 10 minutes. A 1 μl aliquot of compound solution in DMSO was added to the protein solutions in the 1.5 ml eppendorfs to initiate the reaction, with a final assay compound concentration of 8 μM. Reactions were agitated at 25° C., 700 rpm. At each time point (0, 30, 180, 360, 1440 minutes), 10 μl of the reaction mixture was removed, added to 30 μl quench solution (0.3% formic acid, 75 nM propranolol in acetonitrile) to stop the reaction and stored at 4° C. Once all reactions were quenched, the samples were centrifuged at 16000 g for 10 minutes to pellet the protein and salts. A 10 μl aliquot of supernatant containing compound was diluted in 50:50 acetonitrile:H2O in a 96 well plate. The plates were heat sealed and the samples analysed by LC-MS/MS to determine the concentration of compound remaining in the samples. To determine the reaction progress, the compound signal was normalized to the internal standard signal (propranolol). The decrease in free compound concentration is shown as a percentage over time, with the […] at time zero fixed at one hundred percent. Compound is assumed to be completely depleted when no longer detectable with a double blank sample as reference.

[2] = biological target: T2, K-RAS G12D (Homo sapiens, UniProt P01116, G12D); test: Compound depletion assay, K-RAS G12D; assay type: binding; settings: G12D protein 20 μM, compound 8 μM, 25° C.
T2 construct: His tag; purchased Stratech
T2 sequence (P01116 1-188 isoform P01116-2 G12D): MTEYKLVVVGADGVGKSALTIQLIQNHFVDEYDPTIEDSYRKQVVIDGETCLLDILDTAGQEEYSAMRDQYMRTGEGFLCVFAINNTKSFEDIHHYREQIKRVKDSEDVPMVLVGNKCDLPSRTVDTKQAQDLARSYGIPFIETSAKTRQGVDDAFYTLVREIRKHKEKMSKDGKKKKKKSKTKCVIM
Protocol: as §1, §2

T1 sequence (P01116 1-188 isoform P01116-2 G12C): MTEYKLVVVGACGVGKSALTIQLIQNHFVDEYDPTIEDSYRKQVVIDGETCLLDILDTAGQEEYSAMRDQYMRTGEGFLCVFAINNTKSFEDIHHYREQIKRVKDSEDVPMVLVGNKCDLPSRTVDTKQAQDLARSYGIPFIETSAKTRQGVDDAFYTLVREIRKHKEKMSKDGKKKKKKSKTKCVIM

Compound	30 min Category (compound remaining at timepoint) [1]	3 hr Category (compound remaining at timepoint) [1]	6 hr Category (compound remaining at timepoint) [1]	30 min Category (compound remaining at timepoint) [2]	3 hr Category (compound remaining at timepoint) [2]	6 hr Category (compound remaining at timepoint) [2]
C=CC(=O)N1C[C@@H]2C[C@H]1CN2c1cc(C(=O)Nc2cc(O)cc3ccccc23)nc(OC[C@@H]2CCCN2C)n1 [Example 23, N-(3-hydroxy-1-naphthyl)-2-[[(2S)-1-methylpyrrolidin-2-yl]methoxy]-6-[(1S,4S)-2-prop-2-enoyl-2,5-diazabicyclo[2.2.1]heptan-5-yl]pyrimidine-4-carboxamide]	A (≥70% compound remaining at timepoint)	A (≥70% compound remaining at timepoint)	A (≥70% compound remaining at timepoint)	A (≥70% compound remaining at timepoint)	A (≥70% compound remaining at timepoint)	A (≥70% compound remaining at timepoint)
C=CC(=O)N1CCN(c2cc(C(=O)Nc3cc(O)cc4ccccc34)nc(-c3ccccc3)n2)C[C@@H]1CC#N [Example 24, 6-[(3S)-3-(cyanomethyl)-4-prop-2-enoyl-piperazin-1-yl]-N-(3-hydroxy-1-naphthyl)-2-phenyl-pyrimidine-4-carboxamide]	A (≥70% compound remaining at timepoint)	A (≥70% compound remaining at timepoint)	A (≥70% compound remaining at timepoint)	A (≥70% compound remaining at timepoint)	A (≥70% compound remaining at timepoint)	A (≥70% compound remaining at timepoint)
C=CC(=O)N1CCN(c2cc(C(=O)Nc3cc(O)cc4ccccc34)nc(-c3cccnc3)n2)C[C@@H]1CC#N [Example 25, 6-[(3S)-3-(cyanomethyl)-4-prop-2-enoyl-piperazin-1-yl]-N-(3-hydroxy-1-naphthyl)-2-(3-pyridyl)pyrimidine-4-carboxamide]	A (≥70% compound remaining at timepoint)	A (≥70% compound remaining at timepoint)	A (≥70% compound remaining at timepoint)	A (≥70% compound remaining at timepoint)	A (≥70% compound remaining at timepoint)	A (≥70% compound remaining at timepoint)
C=CC(=O)N1CCN(c2cc(C(=O)Nc3cc(O)cc4ccccc34)nc(-c3ccncc3)n2)C[C@@H]1CC#N [Example 26, 6-[(3S)-3-(cyanomethyl)-4-prop-2-enoyl-piperazin-1-yl]-N-(3-hydroxy-1-naphthyl)-2-(4-pyridyl)pyrimidine-4-carboxamide]	A (≥70% compound remaining at timepoint)	A (≥70% compound remaining at timepoint)	A (≥70% compound remaining at timepoint)	A (≥70% compound remaining at timepoint)	A (≥70% compound remaining at timepoint)	A (≥70% compound remaining at timepoint)
C=CC(=O)N1CCN(c2cc(C(=O)Nc3cc(O)cc4ccccc34)nc(NCCN3CCN(C)CC3)n2)C[C@@H]1CC#N [Example 27, 6-[(3S)-3-(cyanomethyl)-4-prop-2-enoyl-piperazin-1-yl]-N-(3-hydroxy-1-naphthyl)-2-[2-(4-methylpiperazin-1-yl)ethylamino]pyrimidine-4-carboxamide]	A (≥70% compound remaining at timepoint)	B (30%-70% compound remaining at timepoint)	C (≤30% compound remaining at timepoint)	A (≥70% compound remaining at timepoint)	A (≥70% compound remaining at timepoint)	A (≥70% compound remaining at timepoint)
C=CC(=O)N1CCN(c2cc(C(=O)Nc3cc(O)cc4ccccc34)nc(NCCN3CCOCC3)n2)C[C@@H]1CC#N [Example 28, 6-[(3S)-3-(cyanomethyl)-4-prop-2-enoyl-piperazin-1-yl]-N-(3-hydroxy-1-naphthyl)-2-(2-morpholinoethylamino)pyrimidine-4-carboxamide]	A (≥70% compound remaining at timepoint)	A (≥70% compound remaining at timepoint)	B (30%-70% compound remaining at timepoint)	A (≥70% compound remaining at timepoint)	A (≥70% compound remaining at timepoint)	A (≥70% compound remaining at timepoint)
C=CC(=O)N1CCN(c2cc(C(=O)Nc3cc(O)cc4ccccc34)nc(NCCN(C)C)n2)C[C@@H]1CC#N [Example 29, 6-[(3S)-3-(cyanomethyl)-4-prop-2-enoyl-piperazin-1-yl]-2-[2-(dimethylamino)ethylamino]-N-(3-hydroxy-1-naphthyl)pyrimidine-4-carboxamide]	A (≥70% compound remaining at timepoint)	B (30%-70% compound remaining at timepoint)	C (≤30% compound remaining at timepoint)	A (≥70% compound remaining at timepoint)	A (≥70% compound remaining at timepoint)	A (≥70% compound remaining at timepoint)
C=CC(=O)N1CCN(c2cc(C(=O)Nc3cc(O)cc4ccccc34)nc(NCCC3CCCN3C)n2)C[C@@H]1CC#N (stereo partly drawn) [Example 30, 6-[(3S)-3-(cyanomethyl)-4-prop-2-enoyl-piperazin-1-yl]-N-(3-hydroxy-1-naphthyl)-2-[2-(1-methylpyrrolidin-2-yl)ethylamino]pyrimidine-4-carboxamide]	B (30%-70% compound remaining at timepoint)	C (≤30% compound remaining at timepoint)	C (≤30% compound remaining at timepoint)	A (≥70% compound remaining at timepoint)	A (≥70% compound remaining at timepoint)	A (≥70% compound remaining at timepoint)
C=CC(=O)N1CCN(c2cc(C(=O)Nc3cc(O)cc4ccccc34)nc(-c3ccccn3)n2)C[C@@H]1CC#N [Example 31, 6-[(3S)-3-(cyanomethyl)-4-prop-2-enoyl-piperazin-1-yl]-N-(3-hydroxy-1-naphthyl)-2-(2-pyridyl)pyrimidine-4-carboxamide]	A (≥70% compound remaining at timepoint)	B (30%-70% compound remaining at timepoint)	B (30%-70% compound remaining at timepoint)	A (≥70% compound remaining at timepoint)	A (≥70% compound remaining at timepoint)	A (≥70% compound remaining at timepoint)
C=CC(=O)N1CCN(c2cc(C(=O)Nc3cc(O)cc4ccccc34)nc(-c3ccc4cnn(C)c4c3)n2)C[C@@H]1CC#N [Example 32, 6-[(3S)-3-(cyanomethyl)-4-prop-2-enoyl-piperazin-1-yl]-N-(3-hydroxy-1-naphthyl)-2-(1-methylindazol-6-yl)pyrimidine-4-carboxamide]	A (≥70% compound remaining at timepoint)	A (≥70% compound remaining at timepoint)	A (≥70% compound remaining at timepoint)	A (≥70% compound remaining at timepoint)	A (≥70% compound remaining at timepoint)	A (≥70% compound remaining at timepoint)
